# Measured values reported in publication PMC9415509, “Pro-Apoptotic Antitumoral Effect of Novel Acridine-Core Naphthoquinone Compounds against Oral Squamous Cell Carcinoma” (Molecules, 2022).
# Like-named read-outs stand apart in the source and are kept apart here.
# Experiments:
# [1] = Solubility observation during MTT testing; type: physicochemical
# Method: All 26 acridine-core naphthoquinone compounds were submitted to the MTT assay to assess their cytotoxicity. […] These compounds were excluded from further biological experimentation. First, the assay was conducted on the SCC9 OSCC cell line and the results were analyzed by a nonlinear regression curve to determine the value of the half maximal inhibitory concentration (IC50). […] Anticancer activities of these compounds are reported here for the first time.
# [2] = tested on: SCC9 (OSCC cell); experiment: MTT cell viability assay (cytotoxicity), SCC9; type: cell-based, human; conditions: for IC50: read-out: SCC9—Oral Cancer IC50; for SCC9 S.I.: IC50 normal oral fibroblasts / IC50 SCC9
# Method: (§1) Cells and reagents. Human SCC-4, SCC-9, and SCC-25 cells, derived from a human oral tongue SCC (squamous cell carcinoma) were obtained from the ATCC (CRL-1624, CRL-1629, and CRL-1628, respectively) and maintained in 1:1 DMEM/F12 (Dulbecco’s modified Eagle medium and Ham’s F12 medium; Gibco (Thermo Fisher, Waltham, MA, USA)) supplemented with 10% (v/v) FBS (fetal bovine serum; Invitrogen, Thermo Fisher, Waltham, MA, USA) and 400 ng/mL hydrocortisone (Sigma-Aldrich Co., St. Louis, MO, USA). Primary normal human gingival fibroblasts were obtained from the ATCC (PCS-201-018) and maintained in DMEM supplemented with 10% (v/v) FBS and were used in a maximum of six passages. The cells were grown in a humidified environment containing 5% CO2 at 37 °C. […] Carboplatin stock was prepared in water (Fauldcarbo®; LibbsFarmacêutica, São Paulo, SP, Brazil) and was used as a standard anticancer compound.
# (§2) Cell viability assay (cytotoxicity) and compound stability assay. The viability of SCC cell lines and primary human fibroblast cells was evaluated using the MTT assay as in [48]. Briefly, the cells were grown in triplicates in 96-well plates (5 × 10^3 cells/well) until confluence. Then, the medium was removed, fresh medium was added, and the cells were returned to the incubator in the presence of different compounds. DMSO at the same concentrations was used as a 100% cell viability control. After 48 h, the cells were incubated with 5 mg/mL MTT reagent (3-(4,5-dimethyl-2-thiazolyl)-2,5-diphenyl-2-H-tetrazolium bromide) (Sigma-Aldrich Co., St. Louis, MO, USA) for 3.5 h. After that, formazan crystals were dissolved in MTT solvent solution (DMSO/methanol 1:1 v/v) and the absorbance at 560 nm was evaluated using an EPOCH microplate spectrophotometer (BioTek Instruments, Winooski, VT, USA) with the background absorbance at 670 nm subtracted.
# (§3) Statistical analysis, IC50 calculation. The data are presented as means ±\SD. IC50 values for the MTT assays were obtained by nonlinear regression using the […] 5.0 program (Intuitive Software for Science, San Diego, CA, USA) from at least three independent experiments. A dose–response (inhibitor) vs. response curve using the least squares method was used to determine the IC50, SD, and R^2 of the data. The selectivity index was calculated as SI = IC50 of the compound in normal oral fibroblast cells/IC50 of the same compound for each oral cancer cell line (SCC-4, SCC-9, and SCC-25) and the mean was calculated when indicated.
# [3] = tested on: Primary normal human gingival fibroblasts; experiment: MTT cell viability assay, normal fibroblasts; type: cell-based; conditions: 48 h, read-out: Primary Gingival Fibroblast IC50
# Method: as §1, §2, §3
# [4] = tested on: SCC25 OSCC cell line; experiment: MTT cell viability assay (cytotoxicity), SCC25; type: cell-based, human; conditions: for IC50: read-out: Oral Tumor Cells SCC25 IC50; for SCC25 S.I.: IC50 normal oral fibroblasts / IC50 SCC25
# Method: as §1, §2, §3
# [5] = tested on: SCC4 OSCC cell line; experiment: MTT cell viability assay (cytotoxicity), SCC4; type: cell-based, human; conditions: for IC50: read-out: Oral Tumor Cells SCC4 IC50; for SCC4 S.I.: IC50 normal oral fibroblasts / IC50 SCC4
# Method: as §1, §2, §3
# [6] = formed crystals at low concentrations in MTT assay
# [7] = Homo sapiens, SCC-9, SCC9, 48 h, MTT (Table 1)
# [8] = Homo sapiens, Fibroblast, primary gingival fibroblasts, MTT
# [9] = Homo sapiens, SCC-25, SCC25, 48 h, MTT
# [10] = Homo sapiens, SCC-4, SCC4, 48 h, MTT
Compound,melting point,"solubility [1, 6]","IC50 [2, 7]",also measured
"O=C1CCCC2=C1C(c1ccc(F)cc1)C1=C(N2)C(=O)c2ccccc2C1=O (centres unmarked) [5f, 12-(4-fluorophenyl)-3,4-dihydrobenzo[b]acridine-1,6,11(2H,5H,12H)-trione]",255 to 256 °C,highly insoluble,,
"O=C1CCCC2=C1C(c1cccc(Cl)c1)C1=C(N2)C(=O)c2ccccc2C1=O (centres unmarked) [5c, 12-(3-chlorophenyl)-3,4-dihydrobenzo[b]acridine-1,6,11(2H,5H,12H)-trione]",217 to 218 °C,,8.93 µM,
"O=C1CCCC2=C1C(c1ccccc1)C1=C(N2)C(=O)c2ccccc2C1=O (centres unmarked) [5a, 12-phenyl-3,4-dihydrobenzo[b]acridine-1,6,11(2H,5H,12H)-trione]",287 to 288 °C,highly insoluble,,
"COc1ccc(C2C3=C(CC(C)(C)CC3=O)NC3=C2C(=O)c2ccccc2C3=O)cc1OC (centres unmarked) [4l, 12-(3,4-dimethoxyphenyl)-3,3-dimethyl-3,4-dihydrobenzo[b]acridine-1,6,11(2H,5H,12H)-trione]",238 to 239 °C,,4.46 µM,
"Cc1ccc(C2C3=C(CC(C)(C)CC3=O)NC3=C2C(=O)c2ccccc2C3=O)c(C)c1 (centres unmarked) [4i, 12-(2,4-dimethylphenyl)-3,3-dimethyl-3,4-dihydrobenzo[b]acridine-1,6,11(2H,5H,12H)-trione]",,highly insoluble,,
"12-(3,3-dimethylphenyl)-3,4-dihydrobenzo[b]acridine-1,6,11(2H,5H,12H)-trione [4a]",,,,solubility [1]: highly insoluble
"CC1(C)CC(=O)C2=C(C1)NC1=C(C(=O)c3ccccc3C1=O)C2c1c(F)c(F)c(F)c(F)c1F (centres unmarked) [4g, 12-(perfluorophenyl)-3,3-dimethyl-3,4-dihydrobenzo[b]acridine-1,6,11(2H,5H,12H)-trione]",260 to 261 °C,highly insoluble,,
"COc1ccc(C2C3=C(CCCC3=O)NC3=C2C(=O)c2ccccc2C3=O)c(OC)c1 (centres unmarked) [5j, 12-(2,4-dimethoxyphenyl)-3,4-dihydrobenzo[b]acridine-1,6,11(2H,5H,12H)-trione]",,,6.84 µM,
"O=C1CCCC2=C1C(c1ccc(Cl)cc1)C1=C(N2)C(=O)c2ccccc2C1=O (centres unmarked) [5d, 12-(4-chlorophenyl)-3,4-dihydrobenzo[b]acridine-1,6,11(2H,5H,12H)-trione]",230 to 231 °C,,2.21 µM,
"CC1(C)CC(=O)C2=C(C1)NC1=C(C(=O)c3ccccc3C1=O)C2c1ccc(F)cc1 (centres unmarked) [4f, 12-(4-fluorophenyl)-3,3-dimethyl-3,4-dihydrobenzo[b]acridine-1,6,11(2H,5H,12H)-trione]",295 to 297 °C,highly insoluble,,
"CC1(C)CC(=O)C2=C(C1)NC1=C(C(=O)c3ccccc3C1=O)C2c1ccccc1Cl (centres unmarked) [4b, 12-(2-chlorophenyl)-3,3-dimethyl-3,4-dihydrobenzo[b]acridine-1,6,11(2H,5H,12H)-trione]",,highly insoluble,,
"CC1(C)CC(=O)C2=C(C1)NC1=C(C(=O)c3ccccc3C1=O)C2c1ccc(Br)cc1 (centres unmarked) [4h, 12-(4-bromophenyl)-3,3-dimethyl-3,4-dihydrobenzo[b]acridine-1,6,11(2H,5H,12H)-trione]",293 to 295 °C,,5.86 µM,
"CC1(C)CC(=O)C2=C(C1)NC1=C(C(=O)c3ccccc3C1=O)C2c1ccc(Cl)cc1 (centres unmarked) [4d, 12-(4-chlorophenyl)-3,3-dimethyl-3,4-dihydrobenzo[b]acridine-1,6,11(2H,5H,12H)-trione]",287 to 288 °C,,51.6 µM,
"COc1cc(C2C3=C(CCCC3=O)NC3=C2C(=O)c2ccccc2C3=O)cc(OC)c1OC (centres unmarked) [5m, 12-(3,4,5-trimethoxyphenyl)-3,4-dihydrobenzo[b]acridine-1,6,11(2H,5H,12H)-trione]",236 to 237 °C,,3.32 µM,
"CC(C)=CCC1=C(O)C(=O)c2ccccc2C1=O [Lapachol, lapachol]",,,58.3 µM,"IC50 [3, 8]: 106 µM; SCC9 S.I. [2]: 1.8; IC50 [4, 9]: 93.8 µM; SCC25 S.I. [4]: 1.1; IC50 [5, 10]: 76.9 µM; SCC4 S.I. [5]: 1.4"
"COc1ccc(OC)c(C2C3=C(CCCC3=O)NC3=C2C(=O)c2ccccc2C3=O)c1 (centres unmarked) [5k, 12-(2,5-dimethoxyphenyl)-3,4-dihydrobenzo[b]acridine-1,6,11(2H,5H,12H)-trione]",219 to 220 °C,,7.2 µM,
"N.N.O=C([O-])C1(C(=O)[O-])CCC1.[Pt+2] [Carboplatin, carboplatin]",,,,"IC50 ([3]; primary gingival fibroblasts, MTT): 560 µM; SCC9 S.I. [2]: 2.2; IC50 ([2]; SCC9, 48 h, MTT (Table 1)): 250 µM; SCC25 S.I. [4]: 3.0; IC50 ([4]; SCC25, 48 h, MTT): 186 µM; SCC4 S.I. [5]: 3.1; IC50 ([5]; SCC4, 48 h, MTT): 180 µM"
"CC(C)=CC[C@@H](O)C1=CC(=O)c2c(O)ccc(O)c2C1=O [Shikonin, shikonin]",,,,"IC50 ([3]; Homo sapiens, Fibroblast): 2.48 µM; IC50 ([2]; Homo sapiens, SCC-9, 48 h): 1.22 µM; SCC9 S.I. [2]: 2.0; IC50 ([4]; Homo sapiens, SCC-25, 48 h): 2.47 µM; SCC25 S.I. [4]: 1.0; IC50 ([5]; Homo sapiens, SCC-4, 48 h): 3.19 µM; SCC4 S.I. [5]: 0.8"
"O=C1CCCC2=C1C(c1c(F)c(F)c(F)c(F)c1F)C1=C(N2)C(=O)c2ccccc2C1=O (centres unmarked) [5g, 12-(perfluorophenyl)-3,4-dihydrobenzo[b]acridine-1,6,11(2H,5H,12H)-trione]",,highly insoluble,,
"COc1ccc(C2C3=C(CCCC3=O)NC3=C2C(=O)c2ccccc2C3=O)cc1OC (centres unmarked) [5l, 12-(3,4-dimethoxyphenyl)-3,4-dihydrobenzo[b]acridine-1,6,11(2H,5H,12H)-trione]",228 to 230 °C,,5.9 µM,
"O=C1CCCC2=C1C(c1ccccc1Cl)C1=C(N2)C(=O)c2ccccc2C1=O (centres unmarked) [5b, 12-(2-chlorophenyl)-3,4-dihydrobenzo[b]acridine-1,6,11(2H,5H,12H)-trione]",,highly insoluble,,
"CC1(C)CC(=O)C2=C(C1)NC1=C(C(=O)c3ccccc3C1=O)C2c1cccc(Cl)c1 (centres unmarked) [4c, 12-(3-chlorophenyl)-3,3-dimethyl-3,4-dihydrobenzo[b]acridine-1,6,11(2H,5H,12H)-trione]",249 to 251 °C,,14.7 µM,
"COc1cccc2c1C(=O)c1c(O)c3c(c(O)c1C2=O)C[C@@](O)(C(=O)CO)C[C@@H]3O[C@H]1C[C@H](N)[C@H](O)[C@H](C)O1 [Doxorubicin, doxorubicin]",,,7.8 µM,"IC50 [3, 8]: 12.3 µM; SCC9 S.I. [2]: 1.6; IC50 [4, 9]: 1.27 µM; SCC25 S.I. [4]: 9.7; IC50 [5, 10]: 4.56 µM; SCC4 S.I. [5]: 2.7"
"O=C1CCCC2=C1C(c1ccc(Cl)cc1Cl)C1=C(N2)C(=O)c2ccccc2C1=O (centres unmarked) [5e, 12-(2.4-dichlorophenyl)-3,4-dihydrobenzo[b]acridine-1,6,11(2H,5H,12H)-trione]",,,4.75 µM,
"Cc1ccc(C2C3=C(CCCC3=O)NC3=C2C(=O)c2ccccc2C3=O)c(C)c1 (centres unmarked) [5i, 12-(2,4-dimethylphenyl)-3,4-dihydrobenzo[b]acridine-1,6,11(2H,5H,12H)-trione]",263 to 264 °C,highly insoluble,,
"O=C1CCCC2=C1C(c1ccc(Br)cc1)C1=C(N2)C(=O)c2ccccc2C1=O (centres unmarked) [5h, 12-(4-bromophenyl)-3,4-dihydrobenzo[b]acridine-1,6,11(2H,5H,12H)-trione]",257 to 258 °C,,7.63 µM,
